Data: US10959998B2, “Pharmaceutical use and pharmaceutical composition of pyrroloquinoline quinine, its derivatives and/or its salts” (priority 2015, dated 2021)

Key:
[1] = test system: ectopic endometrial stromal cells; experiment: MTT cell proliferation of ectopic endometrial stromal cells; type: cell-based, human
Experimental: Endometrial tissues were surgically isolated from patients with chocolate cyst of ovary, washed 2 to 3 times with PBS supplemented with antibiotics in ultra-clean cabinet, and cut into tiny pieces (about 1 mm^3 in size) with aseptic scissors. The tissues were digested with 1 mg/ml collagenase type I for 30 to 90 min at 37° C., and continually digested with Dnase I (final concentration of 15 U/ml, 2% Dnase I) for another 30 min. The digested tissues were filtered thorough 60-mesh stainless steel filter cell strainer to remove the undigested cell tissues, and were further filtered with 200- or 400-mesh strainer. The filtered solution was centrifuged at 1000 rpm for 5 min. After removing the supernatants, the cells were washed once with culture medium compounded by DMEM/F12 (1:1 v/v) and 10% fetal bovine serum, re-suspended in the culture medium, and seeded in 6-well tissue culture plate or T25 tissue culture flasks with an appropriate density. After 24 hours incubation, the culture medium was changed to remove the non-adherent blood cells, endothelial cells, macrophages and other miscellaneous cells. After primary human endometrial stromal cells were grown to reach 90% confluence, the cells were digested with 0.25% trypsin for 4 to 6 min, and then subcultured with a split ratio of 1:2 to 1:3. Vimentin which expresses specifically in stromal cells was detected by immuno-fluorescence to measure the cell purity. The cells of purity >95% were used in the following experiments. Primary ectopic endometrial stromal cells of human were subcultured and the subcultured cells of the 3th to 6th passages were chosen as experimental subjects. The cells in logarithmic growth phase were […] and incubated in the cell culture plate at a density of 50%˜60% (i.e. 2×10^4 cells/well). After growing adherent on the wall for 24 hours, the cultured cells were divided into groups and each group was given different doses of PQQ. 20 μL MTT (5 mg/ml in PBS, pH=7.4) was added to each well at indicated time points. The cells were incubated in an incubator at 37° C. in a 5% CO2 atmosphere for 4 h. At the end of incubation, the culture supernatant in each cell was carefully aspirated away. 150 μL DMSO was added to each well. Then the wells were shaken with Orbital shaker for 10 min. The absorbance of each cell was detected at wavelength 490 nm. Finally, the cell proliferation curve was drawn. Primary ectopic endometrial stromal cells were cultured and the subcultured cells of the 3th to 6th passage were chosen as experimental subjects. The cells in logarithmic growth phase were […] and incubated in the cell culture plate at a of 50%˜60% (e.g. 2×10^4 cells/well). The cells grew adhering to the wall for 24 hours before being treated with drugs. The cells were divided into groups and each group was given different dose of PQQ. At indicated time point, 20 μL […] (5 mg/ml in PBS, pH=7.4) was added to every well. The cells were then incubated in an incubator at 37° C. in a 5% CO2 atmosphere for 4 h. After terminating incubation, the culture supernatant in each cell was carefully aspirated away, but formazan crystals should not be aspirated away in any case. 150 μL DMSO was added to each well respectively. All the wells were shaken with Orbital shaker for 10 min to make the crystals adequately solubilized. The absorbance of each cell was detected at wavelength 490 nm. Finally, the cell proliferation curve was drawn.

ectopic endometrial foci = experiment: Endometriosis rat model, weight of transplanted foci; type: in vivo, SD rats; details: for weight of ectopic endometrial foci compared with the control group / weight of cysts after treatment (mg) Mean ± SD: Example 5, rats; for weight of cysts after treatment (mg) Mean ± SD: water feeding 4 week, PQQ 1 mg/kg, NAC 10 mg/kg, Resveratro 10 mg/kg, n=9
[2] = test system: infiltration of endometrial stroma and glands into myometrium; experiment: Adenomyosis mouse model created with tamoxifen, pathological section; type: in vivo, mice
Experimental: Disodium salt of PQQ was used in the present experiment (PQQ-Na2, donated by MITSUBISHI gas chemical (MGC), Japan). The salt was dissolved with water and the concentration of its mother liquid is 1 mg/mL.
In the present Example, the mouse model of adenomyosis was created with tamoxifen. This method is easy to operate, the rate of molding can reach 100%, and the difference between the model mouses caused by the operation is small. At 2˜5 days after birth (the birth day was the first day), the mice were fed with 5 ul/(g·BW) peanut oil/lecithin/condensed milk mixture (volume ratio 2:0.2:3) supplemented with 0.2 mg/ml tamoxifen (produced by shanghai Fudan Fuhua Pharmaceutical Co, Ltd.) by drip feeding. In the negative control group, the mice were fed with peanut oil/lecithin/condensed milk mixture (volume ratio 2:0.2:3), with no tamoxifen added. All the mice were exposed to light for 12 h/day, and were reared by maternal lactation during 1-21 days of age. After 22 days of birth, the mice were separated with mother mice, and the female mice were reserved for the next experiment.
After 3 months, 7 model mice were killed after anesthesia. […] The remaining model mice were divided into 5 groups with 20 mice in each group. One of the groups was chosen as model control group (fed with normal water). The drinking water for other group were supplemented with PQQ (1 mg/kg/day), NAC (10 mg/kg/day), PQQ (1 mg/kg/day) +NAC (10 mg/kg/day) (denoted by P+N (H)); PQQ (0.2 mg/kg/day) +NAC (5 mg/kg/day) (denoted by P+N (L)).
After treatment with drugs for 4 weeks, the mice were killed by anesthesia. The uterus was surgically removed and the invasion of endometria into myometrium was analyzed by the pathological section.

[3] = test system: ectopic endometrial stromal cells; details: NAC 10 mM, report of Ngo et al. 2009; cited from earlier work
EM lesions = details: cited from earlier work; for lesion of EM model mice: Ricci et al. 2013, by antioxidation effect
cysts of EM patients = details: after three months of treatment with NAC; cited from earlier work
[4] = 4 weeks in drinking water, PQQ (disodium salt) 1 mg/kg/day, NAC 10 mg/kg/day, P+N (H) 1+10, P+N (L) 0.2+5 mg/kg/day

CC(=O)N[C@@H](CS)C(=O)O [NAC, N-acetyl-L-cysteine]
cell proliferation ([1]; NAC 10 um alone): no evident effect | cell proliferation ([1]; NAC 100 um alone): effectively inhibit the cell proliferation | weight of ectopic endometrial foci compared with the control group (ectopic endometrial foci; after 4 weeks treatment): no evident difference from that of the control group | weight of cysts after treatment (mg) Mean ± SD (ectopic endometrial foci): 138.1 ± 33.1 mg | weight of ectopic cys after treatment (mg) Mean ± SD (ectopic endometrial foci; Example 7, rats, 4 weeks in drinking water, PQQ (disodium salt) 1 mg/kg/day, NAC 10 mg/kg/day, P+N (H) 1+10, P+N (L) 0.2+5 mg/kg/day, n=12): 142.1 ± 13.4 mg | weight of ectopic cyst compared with model control group (ectopic endometrial foci; Example 7, rats, after 4 weeks treatment, PQQ as disodium salt): no obvious difference with the control group | infiltration of endometrial glands, positive animals/total animals [2, 4]: 18/20 | infiltration of endometrial stroma, positive animals/total animals [2, 4]: 19/20 | number of animals with infiltration of endometrial stroma and glands compared with model control group ([2]; after 4 weeks treatment, PQQ as disodium salt): no obvious difference with the control group | proliferation of ectopic endometrial stromal cells [3]: inhibit the proliferation of ectopic endometrial stromal cells | growth of EM lesions (EM lesions; mouse models of endometriosis, NAC daily dose 1.3 g/kg/day): significantly inhibit the growth of EM lesions | cysts sizes within EM patients (cysts of EM patients): cysts sizes within EM patients were reduced significantly

Oc1ccc(C=Cc2cc(O)cc(O)c2)cc1 [Res, Resveratrol]
weight of ectopic endometrial foci compared with the control group (ectopic endometrial foci; after 4 weeks treatment): no evident difference from that of the control group | weight of cysts after treatment (mg) Mean ± SD (ectopic endometrial foci): 122.1 ± 30.7 mg | lesion of EM model mice (EM lesions): effectively inhibit the lesion of EM model mice

Epigallocatechin-3-gallate [EGCG]
lesion of EM model mice (EM lesions): effectively inhibit the lesion of EM model mice
